Data reported in patent US4356322A, “Phenoxyalkanolamine derivatives” (Veb Arzneimittelwerk Dresden, priority 1977, dated 1982).
Where a name gives a salt, the structure may show the parent alone. Read-outs that look alike come from different tables or passages of the source.

Columns and labels:
circulation of dogs = experiment: effects on the circulation of dogs under continual intravenous infusion; type: in vivo, dog; conditions: for ED30: Canis lupus familiaris, iv; for effective period / heart's oxygen demand / peripheral cardiovascular system: in vivo; for contractility, cardiac frequency and cardiac output: increases occur at approximately parallel rates
From the text: Column 1: Infusion rate in μg/kg/min
Column 2: Cumulative dose in μg/kg
Rate of pressure increase in the left ventricle (dp/dt/max) in mm Hg·s^-1
ED30 =dosage for 30% increase in inotropy, in μg/kg
Max=maximum increase in percent in inotropy at dose μg/kg
Column 4: Cardiac frequency in n·min^-1
ED30 =dosage for 30% increase in frequency, in μg/kg
Max=maximum increase in percent in frequency at dose μg/kg
Column 5: Cardiac output ml·min^-1 ·kg^-1
Column 6: Diastolic blood pressure in mm Hg
Column 7: Number of animals used in the experiments
X=median values (initial value and after cumulative dose)
%=change in percent of initial value
In these experiments, the compounds were used in the form of hydrochlorides.

cat = experiment: β-mimetic effect on contractility and cardiac frequency in anesthetized cat; type: in vivo; conditions: HCl salt
in vivo = conditions: rat, iv
β-receptor = conditions: M. J. Davey, Arch. Pharmacol. 179 (1973); cited from earlier work
rats = conditions: rat, intravenous, acute; HCl salt
[1] = dog, i.v. infusion, read-out: ED30, dosage for 30% increase in frequency
[2] = dog, i.v. infusion, read-out: ED30, dosage for 30% increase in inotropy
[3] = dog, 12,5 μg/kg/min, cumulative dose --
[4] = dog, at 50 μg/kg, i.v. infusion
[5] = dog, 1,00 μg/kg/min, cumulative 30,0 μg/kg
[6] = dog, 0,25 μg/kg/min, cumulative 15,0 μg/kg
[7] = dog, at 15 μg/kg, i.v. infusion
[8] = dog, 1,00 μg/kg/min, cumulative 10,0 μg/kg
[9] = dog, at 30 μg/kg, i.v. infusion
[10] = dog, 1,00 μg/kg/min, cumulative 20,0 μg/kg
[11] = dog, 0,125 μg/kg/min, cumulative dose --
[12] = dog, at 0,1875 (μg/kg), i.v. infusion
[13] = dog, 10,0 μg/kg/min, cumulative 200 μg/kg

SMILES: CC(CCc1ccc(O)cc1)NCCc1ccc(O)c(O)c1 (stereo not drawn) [Dobutamine, reference compound]
- ED30 (circulation of dogs; [1]): 23 µg/kg
- ED30 (circulation of dogs; [2]): 7.5 µg/kg
- frequency and cardiovascular dilation (circulation of dogs; at higher dosages): strong increases in frequency and in cardiovascular dilation
- Cardiac frequency, change in percent of initial value (circulation of dogs; [3]): +8%
- Cardiac frequency, median initial value - value after dose (circulation of dogs; [3]): 78-84 n.min^-1
- Cardiac output, change in percent of initial value (circulation of dogs; [3]): +23%
- Cardiac output, median initial value - value after dose (circulation of dogs; [3]): 152 to 186 mL/min/kg
- Diastolic blood pressure, change in percent of initial value (circulation of dogs; [3]): +3%
- Diastolic blood pressure, median initial value - value after dose (circulation of dogs; [3]): 101-103 mm Hg
- dp/dt max, change in percent of initial value (circulation of dogs; [3]): +75%
- dp/dt max, median initial value - value after dose (circulation of dogs; [3]): 3088-5410 mm Hg.s^-1
- Max, maximum increase in percent in frequency (circulation of dogs; [4]): +56%
- Max, maximum increase in percent in inotropy (circulation of dogs; [4]): +191%
- effective period (circulation of dogs; dog): equal to the rather brief effective period of isoprenaline
- inotropy (circulation of dogs; in words): strong rise in inotropy

SMILES: OC(CNCCNc1ccccc1Cl)COc1ccccc1 (stereo not drawn) [Example 1, 3-[β-(2-chlorophenylamino)-ethyl]-amino-2-hydroxy-1-phenoxypropane]
- HR, percent change from initial value in heart frequency (cat; D 0.01 mg/kg i.v.): +11%
- dp/dt max, percent change from initial value, left ventricle (cat; D 0.01 mg/kg i.v.): +59%
- ED30 (circulation of dogs; [1]): 20 µg/kg
- ED30 (circulation of dogs; [2]): 11 µg/kg
- Cardiac frequency, change in percent of initial value (circulation of dogs; [5]): +34%
- Cardiac frequency, median initial value - value after cumulative dose (circulation of dogs; [5]): 80-107 n.min^-1
- Cardiac output, change in percent of initial value (circulation of dogs; [5]): +69%
- Cardiac output, median initial value - value after cumulative dose (circulation of dogs; [5]): 115 to 195 mL/min/kg
- Diastolic blood pressure, change in percent of initial value (circulation of dogs; [5]): +2%
- Diastolic blood pressure, median initial value - value after cumulative dose (circulation of dogs; [5]): 111-113 mm Hg
- dp/dt max, change in percent of initial value (circulation of dogs; [5]): +76%
- dp/dt max, median initial value - value after cumulative dose (circulation of dogs; [5]): 3028-5326 mm Hg.s^-1
- Max, maximum increase in percent in inotropy (circulation of dogs; [4]): +91%
- Max, maximum increase in percent in frequency (circulation of dogs; dog, at 60 μg/kg, i.v. infusion): +37%
- LD50 (in vivo): 21000 µg/kg

SMILES: Cc1cccc(C)c1NCCNCC(O)COc1ccccc1 (stereo not drawn) [Example 7, 3-[β-(2,6-dimethylphenylamino)-ethyl]-amino-2-hydroxy-1-phenoxypropane hydrochloride]
- HR, percent change from initial value in heart frequency (cat; D 0.01 mg/kg i.v.): +14%
- dp/dt max, percent change from initial value, left ventricle (cat; D 0.01 mg/kg i.v.): +104%
- ED30 (circulation of dogs; [1]): 15 µg/kg
- ED30 (circulation of dogs; [2]): 5 µg/kg
- Cardiac frequency, change in percent of initial value (circulation of dogs; [6]): +30%
- Cardiac frequency, median initial value - value after cumulative dose (circulation of dogs; [6]): 72-93 n.min^-1
- Cardiac output, change in percent of initial value (circulation of dogs; [6]): +35%
- Cardiac output, median initial value - value after cumulative dose (circulation of dogs; [6]): 138 to 185 mL/min/kg
- Diastolic blood pressure, change in percent of initial value (circulation of dogs; [6]): -3%
- dp/dt max, change in percent of initial value (circulation of dogs; [6]): +72%
- dp/dt max, median initial value - value after cumulative dose (circulation of dogs; [6]): 3834-6590 mm Hg.s^-1
- Max, maximum increase in percent in frequency (circulation of dogs; [7]): +30%
- Max, maximum increase in percent in inotropy (circulation of dogs; [7]): +72%
- LD50 (in vivo): 32000 µg/kg

SMILES: O=[N+]([O-])c1cccc(NCCNCC(O)COc2ccccc2)c1 (stereo not drawn) [Example 16, 3-[β-(3-nitrophenylamino)-ethyl]-amino-2-hydroxy-1-phenoxypropane]
- HR, percent change from initial value in heart frequency (cat; D 0.01 mg/kg i.v.): +13%
- dp/dt max, percent change from initial value, left ventricle (cat; D 0.01 mg/kg i.v.): +57%
- ED30 (circulation of dogs; [1]): 20 µg/kg
- ED30 (circulation of dogs; [2]): 5 µg/kg
- Cardiac frequency, change in percent of initial value (circulation of dogs; [8]): +13%
- Cardiac frequency, median initial value - value after cumulative dose (circulation of dogs; [8]): 83-94 n.min^-1
- Cardiac output, change in percent of initial value (circulation of dogs; [8]): +32%
- Cardiac output, median initial value - value after cumulative dose (circulation of dogs; [8]): 129 to 169 mL/min/kg
- dp/dt max, change in percent of initial value (circulation of dogs; [8]): +71%
- dp/dt max, median initial value - value after cumulative dose (circulation of dogs; [8]): 3068-5230 mm Hg.s^-1
- Max, maximum increase in percent in frequency (circulation of dogs; [9]): +39%
- Max, maximum increase in percent in inotropy (circulation of dogs; [9]): +100%
- LD50 (in vivo): 44000 µg/kg

SMILES: Nc1cccc(NCCNCC(O)COc2ccccc2)c1 (stereo not drawn) [Example 17, 3-[β-(3-aminophenylamino)-ethyl]-amino-2-hydroxy-1-phenoxypropane trihydrochloride]
- HR, percent change from initial value in heart frequency (cat; D 0.01 mg/kg i.v.): +19%
- dp/dt max, percent change from initial value, left ventricle (cat; D 0.01 mg/kg i.v.): +84%
- ED30 (circulation of dogs; [1]): 16 µg/kg
- ED30 (circulation of dogs; [2]): 5.5 µg/kg
- Cardiac frequency, change in percent of initial value (circulation of dogs; [10]): +33%
- Cardiac frequency, median initial value - value after cumulative dose (circulation of dogs; [10]): 85-113 n.min^-1
- Cardiac output, change in percent of initial value (circulation of dogs; [10]): +44%
- Cardiac output, median initial value - value after cumulative dose (circulation of dogs; [10]): 138 to 198 mL/min/kg
- Diastolic blood pressure, change in percent of initial value (circulation of dogs; [10]): +1%
- Diastolic blood pressure, median initial value - value after cumulative dose (circulation of dogs; [10]): 103-104 mm Hg
- dp/dt max, change in percent of initial value (circulation of dogs; [10]): +84%
- dp/dt max, median initial value - value after cumulative dose (circulation of dogs; [10]): 3071-5663 mm Hg.s^-1
- Max, maximum increase in percent in inotropy (circulation of dogs; dog, at 40 μg/kg, i.v. infusion): +93%
- Max, maximum increase in percent in frequency (circulation of dogs; [4]): +49%
- LD50 (in vivo): 66000 µg/kg

SMILES: CC(C)NCC(O)c1ccc(O)c(O)c1 (stereo not drawn) [Isoprenaline-Sulphate, reference compound]
- ED30 (circulation of dogs; [1]): 0.06 µg/kg
- Cardiac frequency, change in percent of initial value (circulation of dogs; [11]): +51%
- Cardiac frequency, median initial value - value after dose (circulation of dogs; [11]): 76-115 n.min^-1
- Cardiac output, change in percent of initial value (circulation of dogs; [11]): +94%
- Cardiac output, median initial value - value after dose (circulation of dogs; [11]): 130 to 253 mL/min/kg
- Diastolic blood pressure, change in percent of initial value (circulation of dogs; [11]): -3%
- dp/dt max, change in percent of initial value (circulation of dogs; [11]): +64%
- dp/dt max, median initial value - value after dose (circulation of dogs; [11]): 3136-5140 mm Hg.s^-1
- Max, maximum increase in percent in frequency (circulation of dogs; [12]): +75%
- Max, maximum increase in percent in inotropy (circulation of dogs; [12]): +116%
- effective period (circulation of dogs; dog): rather brief
- heart's oxygen demand (circulation of dogs; dog): excessive rise in the heart's oxygen demand
- peripheral cardiovascular system (circulation of dogs; dog): a dilation of the peripheral cardiovascular system
- contractility, cardiac frequency and cardiac output (circulation of dogs): increases in contractility, cardiac frequency and cardiac output

SMILES: CC(C)NCC(O)COc1cccc2ccccc12 (stereo not drawn) [Propranolol, reference compound]
- HR, percent change from initial value in heart frequency (cat; D 0.10 mg/kg i.v.): -8%
- dp/dt max, percent change from initial value, left ventricle (cat; D 0.10 mg/kg i.v.): -8%

SMILES: Cc1ccccc1OCC(O)CNCCOc1ccc(C(N)=O)cc1 (stereo not drawn) [Tolamolol, 1-[2-(4-carbamoylphenoxy)-ethylamino]-3-(2-methylphenoxy)-propan-2-ol, reference compound]
- HR, percent change from initial value in heart frequency (cat; D 0.10 mg/kg i.v.): -10%
- dp/dt max, percent change from initial value, left ventricle (cat; D 0.10 mg/kg i.v.): -17%
- intrinsic sympathicomimetic activity (β-receptor): does not exhibit an "intrinsic sympathicomimetic activity"
- β-blocking efficacy compared with propranolol (β-receptor): about equal to that of propranolol
- β-receptor blocking selectivity (β-receptor): cardioselective β-receptor blocking agent
- LD50 (in vivo): 133000 µg/kg

SMILES: COc1cccc(C(=O)CCN[C@@H](C)[C@H](O)c2ccccc2)c1.Cl [d-l-Oxyphedrine Hydrochloride, reference compound]
- HR, percent change from initial value in heart frequency (cat; D 0.50 mg/kg i.v.): +2%
- dp/dt max, percent change from initial value, left ventricle (cat; D 0.50 mg/kg i.v.): +38%
- Cardiac frequency, change in percent of initial value (circulation of dogs; [13]): +56%
- Cardiac frequency, median initial value - value after cumulative dose (circulation of dogs; [13]): 75-117 n.min^-1
- Cardiac output, change in percent of initial value (circulation of dogs; [13]): +65%
- Cardiac output, median initial value - value after cumulative dose (circulation of dogs; [13]): 112 to 186 mL/min/kg
- Diastolic blood pressure, change in percent of initial value (circulation of dogs; [13]): -13%
- dp/dt max, change in percent of initial value (circulation of dogs; [13]): +50%
- dp/dt max, median initial value - value after cumulative dose (circulation of dogs; [13]): 3072-4600 mm Hg.s^-1
- Max, maximum increase in percent in inotropy (circulation of dogs; dog, at 500 μg/kg, i.v. infusion): +89%
- Max, maximum increase in percent in frequency (circulation of dogs; dog, at 600 μg/kg, i.v. infusion): +104%
- ED30, dosage for 30% increase in frequency (circulation of dogs; dog, i.v. infusion): 130 µg/kg
- ED30, dosage for 30% increase in inotropy (circulation of dogs; dog, i.v. infusion): 130 µg/kg
- heart's oxygen demand (circulation of dogs; dog): excessive rise in the heart's oxygen demand
- peripheral cardiovascular system (circulation of dogs; dog): a dilation of the peripheral cardiovascular system
- contractility, cardiac frequency and cardiac output (circulation of dogs): increases in contractility, cardiac frequency and cardiac output
- LD50 (rats): 26000 µg/kg
